Assay results published in patent publication US9782412B2, “Preventive and/or therapeutic agent of immune disease” (TAIHO PHARMACEUTICAL CO., LTD., priority 2015, dated 2017).

Assays:
[1] = test system: RBL-2H3 cells; test: Inhibitory activity against allergic reaction using RBL-2H3 cells (PGD2 production); type: cell-based, rat; details: Rattus norvegicus, RBL-2H3, RBL-2H3 cells, anti-DNP IgE / DNP-BSA; read-out: PGD2 production inhibitory concentration (IC50; (nM))
Method: Rat basophilic leukemia cells, RBL-2H3, were suspended in MEM medium containing 10% FBS, and then the cells were inoculated in a culture plate, and cultured in a CO2 incubator (Sanyo Electric Biomedical Co., Ltd.) at 37° C. for 12 hours. After a culture supernatant was removed and the cells were washed, an anti-DNP-mouse IgE (Alpha Diagnostic Inc.) solution was added thereto, and the cells were cultured in the CO2 incubator for 1 hour. After a culture supernatant was removed and the cells were washed, an MEM medium was added thereto.
Further, a DNP-BSA (LSL, Inc.) solution was added thereto and the cells were cultured in the CO2 incubator for 15 minutes. A culture supernatant was collected and reacted, with PGD2-MOX EIA kit (Cayman Chemical Inc.) on the basis of the protocol attached thereto, and absorbance was measured by SUNRISE RAINBOW THERMO (TECAM Inc.).

[2] = test system: TNP-IgE mice; test: Mouse antigen-induced dermatitis model; type: in vivo; details: for Ear swelling control ratio (%): 30 minutes before allergen, 2 hours after antigen; for ear swellings induced by the allergen application: from low dose, compared with Reference compound 1
Description: Type I allergy models accompanied by a skin symptom (a dermatitis model) were produced, with TNP-IgE mice (CLEA Japan, Inc.). The mice are genetically modified BALB/c mice that constantly produce an IgE specific to hapten TNP (trinitrophenol) which is widely used as an allergen (antigen). It is possible to induce an allergic reaction in the mice, only by administering an allergen, without carrying out an immunization. […] An average value of thickening values of both ears was obtained as a value of an individual (provided that a previous value before the allergen application was 0 mm).
Ear swelling control ratio (%) was calculated by the following formula. Ear swelling control ratio (%)=(1−(Average value of ear thickening of compound administered group)/(Average value of ear thickening of vehicle administered group))×100

[3] = biological target: T1, recombinant human BTK protein (Homo sapiens, UniProt Q06187); test: Measurement of BTK inhibitory activity (in vitro); type: biochemical; details: ATP 45 μM, 40 minutes at 25° C.
T1 construct: purchased Carna Biosciences, Inc
T1 sequence (Q06187 whole entry): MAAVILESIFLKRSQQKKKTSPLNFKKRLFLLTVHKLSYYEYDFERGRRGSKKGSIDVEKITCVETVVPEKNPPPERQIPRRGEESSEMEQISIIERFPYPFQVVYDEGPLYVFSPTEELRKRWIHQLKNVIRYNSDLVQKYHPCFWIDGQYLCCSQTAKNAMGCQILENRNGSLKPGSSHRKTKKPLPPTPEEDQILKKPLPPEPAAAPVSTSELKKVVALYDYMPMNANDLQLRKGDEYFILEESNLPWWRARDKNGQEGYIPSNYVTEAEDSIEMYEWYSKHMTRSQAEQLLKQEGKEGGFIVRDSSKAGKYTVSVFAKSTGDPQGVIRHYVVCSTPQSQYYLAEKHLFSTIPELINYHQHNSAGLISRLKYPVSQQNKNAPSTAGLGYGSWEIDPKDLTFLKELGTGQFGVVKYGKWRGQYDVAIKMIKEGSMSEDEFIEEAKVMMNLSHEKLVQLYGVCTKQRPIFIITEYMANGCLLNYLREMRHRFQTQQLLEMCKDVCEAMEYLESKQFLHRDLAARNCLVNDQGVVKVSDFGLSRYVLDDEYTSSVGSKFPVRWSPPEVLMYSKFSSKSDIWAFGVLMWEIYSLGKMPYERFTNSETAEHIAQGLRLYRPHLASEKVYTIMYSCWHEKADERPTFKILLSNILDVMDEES
Description: Regarding the setting of the conditions for a method for measuring the inhibitory activity of a compound against BTK kinase activity in vitro, it is described in the consumable reagent supplies price list for LabChip (registered trademark) series of PerkinElmer, Inc. that FL-PEPTIDE 2 corresponds to a substrate peptide for the measurement of BTK kinase activity. Therefore, FL-PEPTIDE 2 was used as a substrate. The purified recombinant human BTK protein used in the test was purchased from Carna Biosciences, Inc.
Regarding the measurement of the inhibitory activity of the compounds, firstly, the compounds of the present invention were diluted stepwise with DMSO. Subsequently, BTK protein, a substrate peptide (final concentration was 1 μM), magnesium chloride (final concentration was 10 mM), ATP (final concentration was 45 μM), and a DMSO solution of the compounds of the present invention (final concentration of DMSO was 5%) were added to a buffer solution for kinase reaction (20 mM HEPES (pH 7.5), 2 mM dithiotheitol, 0.01% Triton X-100), and after the solution was incubated for 40 minutes at 25° C., a kinase reaction was carried out. The reaction was terminated by adding EDTA thereto so as to obtain a final concentration of 30 mM. Finally, a substrate peptide that was not phosphorylated (S) and a phosphorylated peptide (P) were separated and detected by microchannel capillary electrophoresis with a LabChip EZ Reader II (PerkinElmer, Inc.).

[4] = test system: A431 cells/TMD8 cells; test: Proliferation inhibitory activity against cell lines expressing BTK and EGFR, comparison of selectivity; type: cell-based, human; details: cells cultured three days with compound, CELLTITER GLO
Description: TMD8 cells, which are of a diffuse large B-cell lymphoma cell line expressing BTK, were suspended in RPMI1640 medium (Life Technologies Corp.) containing 10% fetal bovine serum. A431 cells, which are of an EGFR-overexpressing, highly activated human epidermoid carcinoma cell line, were suspended in DMEM, high glucose medium (Life Technologies Corp.) containing 10% fetal bovine serum. The cell suspensions were inoculated into each well of 384-well flat-bottomed microplates, and the cells were cultured for one day at 37° C. in an incubator containing 5% carbon dioxide gas. […] A DMSO solution of the test compounds was diluted with the medium used in the suspension of the each cell, and this was added to each of the wells of the cell culture plates such that the final concentration of DMSO would be 0.2%. The cells were further cultured for three days at 37° C. in an incubator containing 5% carbon dioxide gas. […] Proliferation inhibition ratio (%)=(C−T)/(C−C0)×100
T: Luminescence intensity of a well in which the test compound was added
C: Luminescence intensity of a well in which the test compound was not added
C0: Luminescence intensity of a well measured before the addition of the test compound
When a comparison is made between the cell proliferation inhibitory activity against A431 cells that depends on the EGFR proliferation signaling and the cell proliferation inhibitory activity against TMD8 cells that depends on the BTK proliferation signaling, the influence of the respective kinases at a cellular level is able to be evaluated. That is, when the “A431 cell proliferation inhibition ratio/TMD8 cell proliferation inhibition ratio” is calculated, it is contemplated that as the value of the ratio is larger, the selectivity to BTK over EGFR in the cells is higher.

[5] = test system: EGFR/BTK; test: BTK inhibition selectivity compared with EGFR kinase inhibitory activity (in vitro); type: biochemical, human; details: ratio of IC50 values
Method: Therefore, a biotinated peptide (biotin-[…]) was produced by referring to the amino acid sequence of the peptide. The purified recombinant human EGFR protein used in the test was purchased from Carna Biosciences, Inc.
Regarding the measurement of the inhibitory activity of the compounds, firstly, the compounds of the present invention were diluted stepwise with DMSO. […] The reaction was terminated by adding EDTA thereto so as to obtain a final concentration of 24 mM. Subsequently, a detection liquid containing Eu-labeled anti-phosphorylated tyrosine antibody PT66 (PerkinElmer, Inc.) and SureLight APC-SA (PerkinElmer, Inc.) was added thereto, and the system was left to stand for 2 hours or longer at room temperature.

[6] = biological target: T2, phosphorylated BTK protein in Ramos cells (Homo sapiens, UniProt Q06187); test: Inhibitory activity against B-cell activation using Ramos cells (BTK phosphorylation); type: cell-based; details: anti-human IgM stimulation, pY223 Western blotting, read-out: Phosphorylated BTK inhibitory concentration (IC50, (nM))
T2 construct: endogenous in cells; host or cells: Ramos cells
T2 sequence (Q06187 whole entry): as above
Method: The human B-cell lymphoma-derived cell line, Ramos cells were suspended in RPMI1640 medium, and then the cells were inoculated in a culture plate at a concentration of 2.0×10^6 (cells/well). The cells were cultured in a CO2 incubator (Sanyo Electric Biomedical Co., Ltd.) at 37° C. for 12 hours. […] Then, 10 minutes of stimulation was provided with Goat F(ab′)2 anti-human IgM antibody-UNLB (southern biotech Corp.). Thereafter, the cells were harvested, and 50 μL of (a cell extract (NP-40; Invitrogen, Inc.) containing 1×protease inhibitor (Hoffmann-La Roche AG) and 1×phosphatase cocktail inhibitor (Sigma-Aldrich Co.)) was added to the cell pellets. The cell pellets were left to stand for 10 minutes on ice. The amount of protein in the collected cell extract was quantitatively analyzed by a DC protein assay (Bio-Rad Laboratories, Inc.), and 20 μg of proteins per lane was applied to a Criterion TGX™ (Bio-Rad Laboratories, Inc.). After electrophoresis was performed, Western blotting was performed with Trans-Blot™ Turbo™ (Bio-Rad Laboratories, Inc.). Thereafter, phosphorylated BTK protein and BTK protein were detected with LAS4000 (GE Healthcare, Inc.) with a BTK phosphor (pY223) antibody (EPITOMICS Inc.) and a BTK antibody (Abcam, plc.).

[7] = Influence on body weight of SD rat by repeated administration; type: in vivo; details: 750 mg/kg orally once a day, two weeks
Method: The rats were grouped as follows, with four animals in each group, by a random classification method such that the average body weights of the respective groups would be almost uniform (Day 1).
The body weight change (BWC) was used as an index indicating the systemic toxicity caused by the compound administration. The BWC was calculated by the following formula. BWC (%)=([(Rat body weight on 14 days after the administration)−(Rat body weight at the time of grouping)]/(Rat body weight at the time of grouping))×100
The relative body weight change ratios in the each compound-administered groups were calculated by the following formula when the BWC in the vehicle-administered group was set as 1, and the results are indicated in Table 25. Relative body weight change ratio (%)=(BWC in the compound-administered group)/BWC in the vehicle-administered group)×100

C=CC(=O)N1CCC[C@@H](n2nc(C(=O)Nc3nc4cc(Cl)ccc4o3)c3c(N)ncnc32)C1 [Example 1, (R)-1-(1-acryloylpiperidin-3-yl)-4-amino-N-(5-chlorobenzo[d]oxazol-2-yl)-1H-pyrazolo[3,4-d]pyrimidine-3-carboxamide]
IC50 [1]: 37 nM
Ear swelling control ratio (%) ([2]; 1 mg/kg oral): 66%
Ear swelling control ratio (%) ([2]; 3 mg/kg oral): 81%
ear swellings induced by the allergen application [2]: suppressed equivalently or strongly ear swellings

C=CC(=O)N1CCC[C@@H](n2nc(C(=O)Nc3nc4cc(C#N)ccc4o3)c3c(N)ncnc32)C1 [Example 6, (R)-1-(1-acryloylpiperidin-3-yl)-4-amino-N-(5-cyanobenzo[d]oxazol-2-yl)-1H-pyrazolo[3,4-d]pyrimidine-3-carboxamide]
IC50 [3]: 0.738 nM
A431 cell proliferation inhibition ratio/TMD8 cell proliferation inhibition ratio [4]: 2786.0
Ear swelling control ratio (%) ([2]; 3 mg/kg oral): 45%

C=CC(=O)N1CCC[C@@H](n2nc(C(=O)Nc3nc4cc(CCOC)ccc4o3)c3c(N)ncnc32)C1 [Example 8, (R)-1-(1-acryloylpiperidin-3-yl)-4-amino-N-(5-(2-methoxyethyl)benzo[d]oxazol-2-yl)-1H-pyrazolo[3,4-d]pyrimidine-3-carboxamide]
IC50 [3]: 1.27 nM
EGFR inhibitory activity IC50 value (nM)/BTK inhibitory activity IC50 value (nM) [5]: 22.9

C=C(C)C(=O)N1CCC[C@@H](n2nc(C(=O)Nc3nc4cc(F)ccc4o3)c3c(N)ncnc32)C1 [Example 11, (R)-4-amino-N-(5-fluorobenzo[d]oxazol-2-yl)-1-(1-methacryloylpiperidin-3-yl)-1H-pyrazolo[3,4-d]pyrimidine-3-carboxamide]
IC50 [3]: 2.14 nM
EGFR inhibitory activity IC50 value (nM)/BTK inhibitory activity IC50 value (nM) [5]: 1294.6

C=CC(=O)N1CCC[C@@H](n2nc(C(=O)Nc3nc4cc(F)ccc4o3)c3c(N)ncnc32)C1 [Example 12, (R)-1-(1-acryloylpiperidin-3-yl)-4-amino-N-(5-fluorobenzo[d]oxazol-2-yl)-1H-pyrazolo[3,4-d]pyrimidine-3-carboxamide]
IC50 [6]: 0.18 nM
IC50 [1]: 15 nM
Ear swelling control ratio (%) ([2]; 1 mg/kg oral): 64%
Ear swelling control ratio (%) ([2]; 3 mg/kg oral): 80%
ear swellings induced by the allergen application [2]: suppressed equivalently or strongly ear swellings
Relative body weight change ratio (%) [7]: 91.2%

C/C=C/C(=O)N1CCC[C@@H](n2nc(C(=O)Nc3nc4ccccc4o3)c3c(N)ncnc32)C1 [Example 14, (R,E)-4-amino-N-(benzo[d]oxazol-2-yl)-1-(1-(but-2-enoyl)piperidin-3-yl)-1H-pyrazolo[3,4-d]pyrimidine-3-carboxamide]
IC50 [3]: 14.1 nM
EGFR inhibitory activity IC50 value (nM)/BTK inhibitory activity IC50 value (nM) [5]: 128.1
A431 cell proliferation inhibition ratio/TMD8 cell proliferation inhibition ratio [4]: >1400.6

CN(C)C/C=C/C(=O)N1CCC[C@@H](n2nc(C(=O)Nc3nc4cc(-c5cccs5)ccc4o3)c3c(N)ncnc32)C1 [Example 21, (R,E)-4-amino-N-(5-(thiophen-2-yl)benzo[d]oxazol-2-yl)-1-(1-(4-(dimethylamino)but-2-enoyl)piperidin-3-yl)-1H-pyrazolo[3,4-d]pyrimidine-3-carboxamide]
IC50 [3]: 0.777 nM
EGFR inhibitory activity IC50 value (nM)/BTK inhibitory activity IC50 value (nM) [5]: 147.4

C=CC(=O)N1CC[C@@H](n2nc(C(=O)Nc3nc4cc(OC)ccc4o3)c3c(N)ncnc32)C1 [Example 38, (R)-1-(1-acryloylpyrrolidin-3-yl)-4-amino-N-(5-methoxybenzo[d]oxazol-2-yl)-1H-pyrazolo[3,4-d]pyrimidine-3-carboxamide]
IC50 [3]: 0.888 nM

C=CC(=O)N1CC(n2nc(C(=O)Nc3nc4cc(Cl)ccc4o3)c3c(N)ncnc32)C1 [Example 45, 1-(1-acryloylazetidin-3-yl)-4-amino-N-(5-chlorobenzo[d]oxazol-2-yl)-1H-pyrazolo[3,4-d]pyrimidine-3-carboxamide]
IC50 [3]: 1.25 nM

CN(C)C/C=C/C(=O)N1CC(n2cc(C(=O)Nc3nc4cc(Cl)ccc4o3)c3c(N)ncnc32)C1 [Example 47, (E)-4-amino-N-(5-chlorobenzo[d]oxazol-2-yl)-7-(1-(4-(dimethylamino)but-2-enoyl)azetidin-3-yl) 7H-pyrrolo[2,3-d]pyrimidine-5-carboxamide]
IC50 [3]: 7.34 nM
EGFR inhibitory activity IC50 value (nM)/BTK inhibitory activity IC50 value (nM) [5]: 20.4
